Measurements published in ChEMBL document CHEMBL1201861, “Genomics of Drug Sensitity in Cancer screening data, Wellcome Trust Sanger Institute”.

Tests used:
Test in all cases: cells
LU-134-A = format: functional, cell-based; details: Homo sapiens
Description: SANGER: Inhibition of human LU-134-A cell growth in a cell viability assay.

MC-IXC = format: functional, cell-based, Homo sapiens; details: Homo sapiens, MC-IXC;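 further: growth inhibition of MC-IXC cells, read out with a cell viability assay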
Description: SANGER: Inhibition of human MC-IXC cell growth in a cell viability assay.

COR-L23 = format: functional, cell-based, Homo sapiens; details: Homo sapiens, COR-L23;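 further: cell viability assay measuring how strongly compounds suppress growth of COR-L23 cells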
Description: SANGER: Inhibition of human COR-L23 cell growth in a cell viability assay.

QIMR-WIL = format: functional, cell-based; details: Homo sapiens;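 further: growth inhibition of QIMR-WIL cells, read out with a cell viability assay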
Description: SANGER: Inhibition of human QIMR-WIL cell growth in a cell viability assay.

NCI-H1755 = format: functional, cell-based, Homo sapiens; details: Homo sapiens, NCI-H1755;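 further: cell viability readout used to measure growth inhibition of NCI-H1755 cells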
Description: SANGER: Inhibition of human NCI-H1755 cell growth in a cell viability assay.

LCLC-103H cell line = format: functional, cell-based, Homo sapiens; details: Homo sapiens, LCLC-103H
Description: SANGER: Inhibition of human LCLC-103H cell growth in a cell viability assay.

CAL-51 = format: functional, cell-based, Homo sapiens; details: Homo sapiens, CAL-51;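 further: human CAL-51 cell line, growth inhibition read out via a cell viability assay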
Description: SANGER: Inhibition of human CAL-51 cell growth in a cell viability assay.

OVCAR-5 = format: functional, cell-based, Homo sapiens; details: Homo sapiens, OVCAR-5;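 further: growth inhibition of human OVCAR-5 cells, read out with a cell viability assay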
Description: SANGER: Inhibition of human OVCAR-5 cell growth in a cell viability assay.

EFO-21 = format: functional, cell-based, Homo sapiens; details: Homo sapiens, EFO-21;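 further: growth inhibition of EFO-21 cells measured with a viability assay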
Description: SANGER: Inhibition of human EFO-21 cell growth in a cell viability assay.

SW1417 = format: functional, cell-based, Homo sapiens; details: Homo sapiens, SW1417;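 further: growth inhibition of human SW1417 cells, read out with a cell viability assay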
Description: SANGER: Inhibition of human SW1417 cell growth in a cell viability assay.

U-87 MG = format: functional, cell-based, U-87MG ATCC; details: Homo sapiens;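 further: growth inhibition of the cells measured with a viability assay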
Description: SANGER: Inhibition of human U-87-MG cell growth in a cell viability assay.

P30-OHK = format: functional, cell-based; details: Homo sapiens;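 further: growth inhibition of the P30-OHK cell line, read out with a cell viability assay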
Description: SANGER: Inhibition of human P30-OHK cell growth in a cell viability assay.

KLE = format: functional, cell-based, Homo sapiens; details: Homo sapiens, KLE;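 further: growth inhibition of human KLE cells, read out with a cell viability assay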
Description: SANGER: Inhibition of human KLE cell growth in a cell viability assay.

Huh-7 = format: functional, cell-based, Homo sapiens; details: Homo sapiens, Huh-7;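 further: HuH-7 cell growth inhibition, read out with a cell viability assay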
Description: SANGER: Inhibition of human HuH-7 cell growth in a cell viability assay.

G-401 = format: functional, cell-based, Homo sapiens; details: Homo sapiens, G-401
Description: SANGER: Inhibition of human G-401 cell growth in a cell viability assay.

NCI-H747 = format: functional, cell-based; details: Homo sapiens;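 further: growth inhibition of human NCI-H747 cells, read out by a cell viability assay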
GCT = format: functional, cell-based, Homo sapiens; details: Homo sapiens, GCT;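 further: GCT cell line proliferation inhibition, read out with a cell viability assay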
Description: SANGER: Inhibition of human GCT cell growth in a cell viability assay.

639-V = format: functional, cell-based, Homo sapiens; details: Homo sapiens, 639-V;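 further: growth inhibition of 639-V cells, read out with a cell viability assay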
Description: SANGER: Inhibition of human 639-V cell growth in a cell viability assay.

HOS = format: functional, cell-based, Homo sapiens; details: Homo sapiens, HOS;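 further: growth inhibition of human HOS cells, read out with a cell viability assay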
Description: SANGER: Inhibition of human HOS cell growth in a cell viability assay.

NCI-H2452 = format: functional, cell-based, Homo sapiens; details: Homo sapiens, NCI-H2452;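 further: growth inhibition of NCI-H2452 cells, read out with a cell viability assay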
Description: SANGER: Inhibition of human NCI-H2452 cell growth in a cell viability assay.

LS-513 = format: functional, cell-based, Homo sapiens; details: Homo sapiens, LS-513
Description: SANGER: Inhibition of human LS-513 cell growth in a cell viability assay.

NCI-H2126 = format: functional, cell-based, Homo sapiens; details: Homo sapiens, NCI-H2126;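 further: growth inhibition of the cancer cell line, determined with a cell viability readout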
Description: SANGER: Inhibition of human NCI-H2126 cell growth in a cell viability assay.

IGR-1 = format: functional, cell-based, Homo sapiens; details: Homo sapiens, IGR-1;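 further: growth inhibition of human IGR-1 cells, read out with a cell viability assay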
Description: SANGER: Inhibition of human IGR-1 cell growth in a cell viability assay.

SK-MEL-30 = format: functional, cell-based; details: Homo sapiens;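 further: growth inhibition of SK-MEL-30 cells, determined with a cell viability assay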
Description: SANGER: Inhibition of human SK-MEL-30 cell growth in a cell viability assay.

SF-268 = format: functional, cell-based, Homo sapiens; details: Homo sapiens, SF-268;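 further: growth inhibition of SF-268 cells determined with a cell viability assay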
Description: SANGER: Inhibition of human SF268 cell growth in a cell viability assay.

PA-1 = format: functional, cell-based, Homo sapiens; details: Homo sapiens, PA-1;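 further: IC50 for suppression of PA-1 cell proliferation, determined with a cell viability read-out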
Description: SANGER: Inhibition of human PA-1 cell growth in a cell viability assay.

ES4 = format: functional, cell-based, Homo sapiens; details: Homo sapiens, ES4;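 further: growth inhibition of human ES4 cells, read out by a cell viability assay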
Description: SANGER: Inhibition of human ES4 cell growth in a cell viability assay.

IST-MEL1 = format: functional, cell-based, Homo sapiens; details: Homo sapiens, IST-MEL1;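 further: growth inhibition of the cell line, read out with a cell viability assay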
Description: SANGER: Inhibition of human IST-MEL1 cell growth in a cell viability assay.

Ramos-2G6-4C10 = format: functional, cell-based; details: Homo sapiens;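 further: growth inhibition of the cell line, measured by a cell viability read-out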
Description: SANGER: Inhibition of human Ramos-2G6-4C10 cell growth in a cell viability assay.

T-24 = format: functional, cell-based, Homo sapiens; details: Homo sapiens, T-24;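 further: growth inhibition of T-24 cells, read out with a cell viability assay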
Description: SANGER: Inhibition of human T-24 cell growth in a cell viability assay.

SW948 = format: functional, cell-based, Homo sapiens; details: Homo sapiens, SW948;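 further: growth inhibition of SW948 cells, read out with a cell viability assay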
Description: SANGER: Inhibition of human SW948 cell growth in a cell viability assay.

SW1783 = format: functional, cell-based; details: Homo sapiens;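 further: cell growth inhibition measured with a viability assay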
Description: SANGER: Inhibition of human SW1783 cell growth in a cell viability assay.

MG-63 = format: functional, cell-based, Homo sapiens; details: Homo sapiens, MG-63;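 further: growth inhibition of human MG-63 cells, read out with a cell viability assay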
Description: SANGER: Inhibition of human MG-63 cell growth in a cell viability assay.

CAL-120 = format: functional, cell-based, Homo sapiens; details: Homo sapiens, CAL-120;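 further: cell growth inhibition, read out as cell viability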
Description: SANGER: Inhibition of human CAL-120 cell growth in a cell viability assay.

ME-180 = format: functional, cell-based; details: Homo sapiens;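 further: cell viability assay measuring growth inhibition of ME-180 cells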
Description: SANGER: Inhibition of human ME-180 cell growth in a cell viability assay.

NCI-H1793 = format: functional, cell-based, Homo sapiens; details: Homo sapiens, NCI-H1793;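 further: cell growth inhibition, read out by a cell viability assay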
Description: SANGER: Inhibition of human NCI-H1793 cell growth in a cell viability assay.

NCI-H2087 = format: functional, cell-based, Homo sapiens; details: Homo sapiens, NCI-H2087;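 further: growth inhibition determined with a cell viability readout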
Description: SANGER: Inhibition of human NCI-H2087 cell growth in a cell viability assay.

NCI-H1395 = format: functional, cell-based, Homo sapiens; details: Homo sapiens, NCI-H1395;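 further: cell viability assay read-out quantifying reduced proliferation of human NCI-H1395 cells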
Description: SANGER: Inhibition of human NCI-H1395 cell growth in a cell viability assay.

NCI-H1092 = format: functional, cell-based; details: Homo sapiens;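 further: cell growth inhibition measured with a cell viability assay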
Description: SANGER: Inhibition of human NCI-H1092 cell growth in a cell viability assay.

SW684 = format: functional, cell-based, Homo sapiens; details: Homo sapiens, SW684;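 further: growth inhibition of human SW684 cells, measured by a cell viability assay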
Description: SANGER: Inhibition of human SW684 cell growth in a cell viability assay.

SW1573 = format: functional, cell-based, Homo sapiens; details: Homo sapiens, SW1573;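 further: growth inhibition of SW1573 cells, read out with a cell viability assay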
Description: SANGER: Inhibition of human SW1573 cell growth in a cell viability assay.

KYSE-270 = format: functional, cell-based, Homo sapiens; details: Homo sapiens, KYSE-270;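 further: cell growth inhibition measured with a viability assay in the human KYSE-270 line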
Description: SANGER: Inhibition of human KYSE-270 cell growth in a cell viability assay.

KYSE-150 cell line = format: functional, cell-based, Homo sapiens; details: Homo sapiens, KYSE-150;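 further: growth inhibition of human KYSE-150 cells, read out with a cell viability assay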
Description: SANGER: Inhibition of human KYSE-150 cell growth in a cell viability assay.

A-375 = format: functional, cell-based, Homo sapiens; details: Homo sapiens, A-375;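 further: growth inhibition of A375 cells, read out with a cell viability assay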
Description: SANGER: Inhibition of human A375 cell growth in a cell viability assay.

A388 = format: functional, cell-based, Homo sapiens; details: Homo sapiens, A388;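 further: growth inhibition of human A388 cells, read out with a cell viability assay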
Description: SANGER: Inhibition of human A388 cell growth in a cell viability assay.

SK-NEP-1 = format: functional, cell-based; details: Homo sapiens;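 further: growth inhibition of human SK-NEP-1 cells, read out by a cell viability assay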
Description: SANGER: Inhibition of human SK-NEP-1 cell growth in a cell viability assay.

COLO-741 = format: functional, cell-based, Homo sapiens; details: Homo sapiens, COLO-741
Description: SANGER: Inhibition of human COLO-741 cell growth in a cell viability assay.

RH-1 = format: functional, cell-based, Homo sapiens; details: Homo sapiens, RH-1;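 further: growth inhibition of human RH-1 cells, read out with a cell viability assay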
C8166 = format: functional, cell-based; details: Homo sapiens;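 further: growth inhibition of human C8166 cells measured by a cell viability assay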
Description: SANGER: Inhibition of human C8166 cell growth in a cell viability assay.

HCC1419 = format: functional, cell-based, Homo sapiens; details: Homo sapiens, HCC1419;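 further: growth inhibition of human HCC1419 cells, read out as cell viability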
Description: SANGER: Inhibition of human HCC1419 cell growth in a cell viability assay.

COLO-668 = format: functional, cell-based, Homo sapiens; details: Homo sapiens, COLO-668
Description: SANGER: Inhibition of human COLO-668 cell growth in a cell viability assay.

Measured: IC50

CCOc1nc(NC(=O)Cc2cc(OC)ccc2OC)cc(N)c1C#N
> 10000 nM: MC-IXC | QIMR-WIL | CAL-51 | OVCAR-5 | G-401 | 639-V | NCI-H2452 | LS-513 | PA-1 | Ramos-2G6-4C10 | T-24 | MG-63 | CAL-120 | NCI-H1793 | KYSE-150 cell line | A-375 | SK-NEP-1 | HCC1419
> 10 µM: all other assays above

O=C1N=C(NCc2cccs2)S/C1=C\c1ccc2ncccc2c1
1230 nM: PA-1
> 5000 nM: MC-IXC | QIMR-WIL | CAL-51 | OVCAR-5 | G-401 | NCI-H2452 | LS-513 | Ramos-2G6-4C10 | T-24 | MG-63 | CAL-120 | NCI-H1793 | KYSE-150 cell line | A-375 | SK-NEP-1 | HCC1419
2280 nM: 639-V
> 5 µM: all other assays above

CN(C)C/C=C/C(=O)Nc1cc2c(Nc3ccc(F)c(Cl)c3)ncnc2cc1O[C@H]1CCOC1 [AFATINIB]
0.369 µM: A388
364 nM: HCC1419
> 500 nM: MC-IXC | QIMR-WIL | CAL-51 | OVCAR-5 | G-401 | 639-V | NCI-H2452 | LS-513 | PA-1 | Ramos-2G6-4C10 | T-24 | MG-63 | CAL-120 | NCI-H1793 | KYSE-150 cell line | A-375 | SK-NEP-1
> 0.5 µM: all other assays above

COc1ccc(-c2ccc3c(N4CCOC[C@@H]4C)nc(N4CCOC[C@@H]4C)nc3n2)cc1CO [AZD-8055]
1.57 µM: KYSE-270 | RH-1
0.327 µM: P30-OHK
752 nM: A-375
1.35 µM: COR-L23
1.14 µM: NCI-H1755
452 nM: QIMR-WIL
1.68 µM: NCI-H2126
625 nM: SK-NEP-1
> 2000 nM: 639-V | LS-513 | T-24
1.13 µM: NCI-H1092
274 nM: MG-63
170 nM: Ramos-2G6-4C10
1.19 µM: IST-MEL1
0.434 µM: Huh-7
197 nM: CAL-51
662 nM: KYSE-150 cell line
1.97 µM: SW684
429 nM: OVCAR-5
860 nM: CAL-120
0.147 µM: ME-180
310 nM: G-401
0.76 µM: NCI-H747
869 nM: HCC1419
534 nM: NCI-H1793
727 nM: MC-IXC
1.6 µM: SW1573
0.453 µM: ES4
619 nM: NCI-H2452
0.572 µM: HOS
1.34 µM: GCT
336 nM: PA-1
1.03 µM: LU-134-A
> 2 µM: all other assays above

O=C(NOCC1CC1)c1ccc(F)c(F)c1Nc1ccc(I)cc1Cl [CI-1040]
5640 nM: PA-1
1450 nM: LS-513
5.63 µM: HOS
7.25 µM: SK-MEL-30
> 10000 nM: MC-IXC | QIMR-WIL | CAL-51 | G-401 | NCI-H2452 | Ramos-2G6-4C10 | MG-63 | CAL-120 | NCI-H1793 | KYSE-150 cell line | SK-NEP-1 | HCC1419
7.24 µM: COR-L23
1780 nM: OVCAR-5
3.85 µM: NCI-H2087
4.69 µM: NCI-H747
9.01 µM: NCI-H2126
8.87 µM: ES4
9.65 µM: P30-OHK
5.58 µM: ME-180
2910 nM: T-24
1900 nM: A-375
3.19 µM: COLO-741
9.57 µM: SW1417
9640 nM: 639-V
5.27 µM: Huh-7
8 µM: IST-MEL1
> 10 µM: all other assays above
